Tested on: carrageenan-induced hind paw edema
Assay: carrageenan-induced hind paw edema (anti-inflammatory effect in vivo)
Design: species or system Wistar rats
Conditions: for time up to which the anti-inflammatory effect increased: after oral administration, diclofenac 4 mg/kg, Zn(II) complex 10 mg/kg, measured at 1-6 hours; for percent inhibition of inflammation (paw edema) vs control group: male Wistar rats, half an hour before carrageenan; for anti-inflammatory effect in vivo (in words): Wistar rats, 10 mg/kg
Experimental: The crystalline zinc complex was evaluated for anti-inflammatory effects in vivo in Wistar rats, compared to the known NSAID diclofenac as a standard treatment.
Eighteen male Wistar rats (weighing from 200-250 g) were obtained from the “Animal Care and Use Center of College of Pharmacy at King Saud University, Riyadh, Saudi Arabia”. Institutional guidelines were followed for these studies. All rats were provided standard laboratory conditions of “temperature and relative humidity. The rats were kept in plastic cages and given free access to standard laboratory pellet diet and water ad libitum.
The anti-inflammatory studies were performed by the standard carrageenan-induced hind paw edema method of inducing acute swelling, known in the industry and widely reported in the literature. The rats were randomly divided into 3 groups of 6 rats. Group I rats were given carrageenan only, and served as control group. Group II and III rats were given standard diclofenac and the studied Zn(II) complex, respectively.
The standard diclofenac (4 mg/kg) and the Zn(II) complex (10 mg/kg) were administered orally half an hour before sub plantar injection of carrageenan in the right paw. Paw edema was induced by injecting 0.1 ml of a 1% w/v suspension of carrageenan in purified water. The initial and final paw volume of each rat was measured at regular interval of time (1, 2, 3, 4, 5 and 6 hours) after injection, using a digital Plethysmometer (Ugo Basile, Italy). The percent inhibition of edema produced by the diclofenac- and zinc(II) complex-treated groups was determined with respect to the control group, using the standard formula used with this type of test, as known in the industry and reported in the literature. The inhibition of inflammation was analyzed statistically by applying a student t-test, using the MS Excel 2010 spreadsheet program. A P value <0.05 was considered statistically significant.

| Compound | time up to which the anti-inflammatory effect increased | percent inhibition of inflammation (paw edema) vs control group (4 mg/kg oral, 5 hours past oral administration) | anti-inflammatory effect in vivo (in words) (10 mg/kg oral) | anti-inflammatory effect in vivo (in words) (10 mg/kg oral, listed as zinc complex) | percent inhibition of inflammation (paw edema) vs control group (10 mg/kg oral, 6 hours post oral administration) |
| --- | --- | --- | --- | --- | --- |
| O=C(O)Cc1ccccc1Nc1c(Cl)cccc1Cl [diclofenac, reference compound] | about 5 hours | 82.31% |  |  |  |
| bis(chloro)-(N,N′-(2,2-dimethylpropane-1,3-diyl)bis(1-(2-chlorophenyl)methanimine))-zinc(II) complex [Zn(II) complex] | about 6 hours |  | good anti-inflammatory effect | good degree of anti-inflammatory activity | 56.39% |

Source: patent US10144748B1, “Anti-inflammatory zinc(II) complex” (KING SAUD UNIVERSITY, priority 2018, dated 2018)
